Measured values as given in patent US20140113877A1, “NOVEL 3,4,4A,10B-TETRAHYDRO-1H-THIOPYRANO[4,3-C] ISOQUINOLINE COMPOUNDS” (Takeda GmbH, priority 2011, published 2014).

Experiments:
[1] = molecular target: T1, human PDE5 (Homo sapiens, UniProt O76074); assay: Inhibition of PDE5 activity (SPA, [3H]cGMP, platelet lysate); format: biochemical; conditions: 0.5 μM cGMP, binned: below 8 / between 8 and 9, read-out: PDE5 inhibitory values measured as −logIC50 (converted)
T1 construct: from tissue; host or cells: human platelets from fresh donor blood (platelet lysate)
Protocol: As a source for human PDE5, platelets were used. For that purpose, 150 ml fresh blood from human donors anticoagulated with citrate [final concentration 0.3% (w/v)] was centrifuged at 200 g for 10 min to obtain the so-called platelet-rich-plasma (PRP) as a supernatant. 1/10 volume of ACD solution (85 mM Na3-citrate, 111 mM D-glucose, 71 mM citric acid, pH 4.4) was added to 9/10 volume of PRP. After centrifugation (1,400 g, 10 min) the cell pellet was resuspended in 3 ml homogenization buffer (NaCl 140 mM, KCl 3.8 mM, EGTA (ethylene glycol tetraacetic acid) 1 mM, MgCl2 1 mM, Tris-HCl 20 mM, beta-mercaptoethanol 1 mM, pH 8.2) plus protease-inhibitor mix resulting in final concentrations of 0.5 mM Pefablock (Roche), 10 μM Leupeptin, 5 μM Trypsine inhibitor, 2 mM Benzamidin and 10 μM Pepstatin A. The suspension was sonicated and thereafter centrifuged for 15 min at 10,000 g. The resulting supernatant (platelet lysate) was used for enzymatic assays.
PDE5 activities were measured in a 96-well platform using SPA (scintillation proximity assay) yttrium silicate beads (RPNQ1050 from GE Healthcare). In a first step the PDE activity operated hydrolysis of either [^3H] cGMP (substrate) into [^3H] 5′GMP. In a second step substrate and product were distinguished following addition of SPA yttrium silicate beads. Indeed, in the presence of zinc sulphate the linear [^3H] […] Close proximity of bound [^3H] […] The test volume was 100 μl and contained 20 mM Tris buffer (pH 7.4), 0.1 mg of BSA (bovine serum albumin)/ml, 5 mM Mg^2+, 1 μM motapizone (PDE3 Inhibitor), 10 nM PDE2 inhibitor 2-(3,4-dimethoxybenzyl)-7-[(1R,2R)-2-hydroxy-1-(2-phenylethyl)propyl]-5-methylimidazo[5,1-f][1,2,4]triazin-4(3H)-one, 0.5 μM cGMP (cyclic guanosine monophosphate) (including about 50,000 cpm of [3H]cGMP as a tracer) (substrate), 1 μl of the respective compound dilution in dimethylsulfoxide (DMSO) and sufficient PDE5-containing platelet lysat (10,000×g supernatant, see above) to ensure that 10-20% of the cGMP was converted under the said experimental conditions. […] After a preincubation of 5 min at 37° C., the reaction was commenced by adding the substrate (cGMP) and the assay was incubated for a further 15 min. The reaction was terminated by adding SPA beads (50 μl). In agreement with the manufacturer's instructions, the SPA beads had previously been resuspended in water, but were then diluted 1:3 (v/v) in water. This diluted solution also contained 3 mM 8-methoxymethyl-3-isobutyl-1-methylxanthine (IBMX) to ensure a complete block of PDE activity. Once the beads were sedimented (>30 min), the MTP's were analyzed in commercially available luminescence detection devices. The corresponding IC50 values of the compounds for inhibition of PDE activity were determined from the concentration-effect curves by means of non-linear regression.
For the following compounds PDE5 inhibitory values [measured as −logIC50 (mol/l)] below 8 and between 8 and 9 have been determined. The numbers of the compounds correspond to the numbers of the examples.

[2] = molecular target: T2, PDE4B1 (Homo sapiens, UniProt Q07343); assay: Inhibition of PDE4B1 activity (SPA, [3H]cAMP); format: biochemical; conditions: recombinant PDE4B1, 0.5 μM cAMP; binned: below 8 / between 8 and 9; read-out: PDE4B1 inhibitory values measured as −logIC50 (converted)
T2 construct: made in house; host or cells: SF21 insect cells (baculovirus; virus prepared in SF9 cells)
T2 sequence (Q07343 whole entry): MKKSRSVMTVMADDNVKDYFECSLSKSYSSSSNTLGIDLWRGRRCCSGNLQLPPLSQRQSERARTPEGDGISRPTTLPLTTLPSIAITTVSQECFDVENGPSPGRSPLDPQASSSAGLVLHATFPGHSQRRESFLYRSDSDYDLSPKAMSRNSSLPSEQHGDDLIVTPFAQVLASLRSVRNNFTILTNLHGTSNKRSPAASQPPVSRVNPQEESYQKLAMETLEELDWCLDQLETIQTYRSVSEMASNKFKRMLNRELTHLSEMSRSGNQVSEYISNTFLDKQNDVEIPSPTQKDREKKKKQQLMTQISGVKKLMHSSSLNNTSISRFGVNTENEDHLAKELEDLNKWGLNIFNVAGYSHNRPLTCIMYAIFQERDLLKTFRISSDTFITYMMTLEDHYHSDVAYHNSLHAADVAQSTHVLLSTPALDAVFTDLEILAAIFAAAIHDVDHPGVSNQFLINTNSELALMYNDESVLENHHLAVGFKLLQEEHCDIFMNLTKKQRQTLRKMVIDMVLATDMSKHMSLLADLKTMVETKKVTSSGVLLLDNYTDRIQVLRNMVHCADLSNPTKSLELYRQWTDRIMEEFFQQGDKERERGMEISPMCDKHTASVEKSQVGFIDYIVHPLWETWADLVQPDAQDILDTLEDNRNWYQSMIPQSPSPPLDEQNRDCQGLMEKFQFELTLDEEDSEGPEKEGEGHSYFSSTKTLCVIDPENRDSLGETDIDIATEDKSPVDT
Protocol: The PDE4B1 (GB no. L20966) was a gift of Prof. M. Conti (Stanford University, USA). It was amplified from the original plasmid (pCMV5) via PCR with primers Rb18 (5′-[…]-3′) and Rb10 (5′-[…]-3′) and cloned into the pCR-Bac vector (Invitrogen, Groningen, NL).
The recombinant baculovirus was prepared by means of homologous recombination in SF9 insect cells. The expression plasmids were cotransfected with Baculo-Gold DNA (Pharmingen, Hamburg) using a standard protocol (Pharmingen, Hamburg). Wt virus-free recombinant virus supernatants were selected using plaque assay methods. After that, high-titre virus supernatants were prepared by amplifying 3 times. PDE4B1 was expressed in SF21 cells by infecting 2×10^6 cells/ml with an MOI (multiplicity of infection) between 1 and 10 in the serum-free SF900 medium (GIBCO Life Technologies, Karlsruhe, Germany). The cells were cultured at 28° C. for 48-72 hours, after which they were pelleted for 5-10 min at 1000×g and 4° C.
The SF21 insect cells were resuspended, at a concentration of approx. 10^7 cells/ml, in ice-cold (4° C.) homogenization buffer (20 mM Tris, pH 8.2, containing the following additions: 140 mM NaCl, 3.8 mM KCl, 1 mM EGTA, 1 mM MgCl2, 10 mM β-mercaptoethanol, 2 mM benzamidine, 0.4 mM Pefablock, 10 μM leupeptin, 10 μM pepstatin A, 5 μM trypsin inhibitor) and disrupted by ultrasonication. The homogenate was then centrifuged for 10 min at 1000×g and the supernatant was stored at −80° C. until subsequent use (see below). The protein content was determined by the Bradford method (BioRad, Munich) using BSA (Bovine serum albumin) as the standard.
PDE4B1 activities were measured in a 96-well platform using SPA (scintillation proximity assay) yttrium silicate beads (RPNQ1050 from GE Healthcare). In a first step the PDE activity operated hydrolysis of either [^3H] cAMP (substrate) into [^3H] 5′AMP. In a second step substrate and product were distinguished following addition of SPA yttrium silicate beads. Indeed, in the presence of zinc sulphate the linear [^3H] […] Close proximity of bound [^3H] […] The test volume was 100 μl and finally contained 20 mM Tris buffer (pH 7.4), 0.1 mg/ml of BSA, 5 mM Mg^2+, 0.5 μM cAMP (including about 50,000 cpm of [3H]cAMP) as substrate, 1 μl of the respective substance dilution in DMSO and sufficient recombinant PDE (1000×g supernatant, see above) to ensure that 10-20% of the cAMP was converted under the said experimental conditions. […] After a preincubation of 5 min at 37° C., the reaction was commenced by adding the substrate (cAMP) and the assays were incubated for a further 15 min. Reactions were terminated by adding SPA beads (50 μl). In agreement with the manufacturer's instructions, the SPA beads had previously been resuspended in water, but were then diluted 1:3 (v/v) in water. This diluted solution further contained 3 mM IBMX (isobutylmethylxanthine) to ensure a complete block of PDE activity. Once the beads were sedimented (>30 min), the MTP's (microtiter plate) were analyzed in commercially available luminescence detection devices. The corresponding IC50 values of the compounds for inhibition of PDE4B1 activity were determined from the concentration-effect curves by means of non-linear regression.
For the following compounds PDE4B1 inhibitory values [measured as −logIC50 (mol/l)] below 8 and between 8 and 9 have been determined. The numbers of the compounds correspond to the numbers of the examples.

IC50 [1] [nM] | IC50 [2] [nM] | Structure (SMILES)
1 to 10 | > 10 | CCOc1cc2c(cc1OC)C(c1ccc(C(=O)N3CCC(n4c(=O)c5sc(-c6ccc(F)cc6OC)cc5n(Cc5cc(F)c(OC)c(F)c5)c4=O)CC3)cc1)=N[C@@H]1CCSC[C@H]21 [Example 14, 1-(3,5-difluoro-4-methoxybenzyl)-3-[1-({4-[(4aR,10bR)-9-ethoxy-8-methoxy-3,4,4a,10b-tetrahydro-1H-thiopyrano[4,3-c]isoquinolin-6-yl]phenyl}carbonyl)piperidin-4-yl]-6-(4-fluoro-2-methoxyphenyl)thieno[3,2-d]pyrimidine-2,4(1H,3H)-dione]
1 to 10 | > 10 | CCOc1cc2c(cc1OC)C(c1ccc(C(=O)N3CCC(n4c(=O)c5sc(-c6ccc(F)cc6C)cc5n(Cc5ccc(OC)c(F)c5)c4=O)CC3)cc1)=N[C@@H]1CCSC[C@H]21 [Example 18, 3-[1-({4-[(4aR,10bR)-9-ethoxy-8-methoxy-3,4,4a,10b-tetrahydro-1H-thiopyrano[4,3-c]isoquinolin-6-yl]phenyl}carbonyl)piperidin-4-yl]-1-(3-fluoro-4-methoxybenzyl)-6-(4-fluoro-2-methylphenyl)thieno[3,2-d]pyrimidine-2,4(1H,3H)-dione]
1 to 10 | 1 to 10 | CCOc1cc2c(cc1OC)C(c1ccc(C(=O)N3CCC(n4c(=O)c5sc(-c6ccccc6OC)cc5n(Cc5ccc(OC)c(F)c5)c4=O)CC3)cc1)=N[C@@H]1CCSC[C@H]21 [Example 19, 3-[1-({4-[(4aR,10bR)-9-ethoxy-8-methoxy-3,4,4a,10b-tetrahydro-1H-thiopyrano[4,3-c]isoquinolin-6-yl]phenyl}carbonyl)piperidin-4-yl]-1-(3-fluoro-4-methoxybenzyl)-6-(2-methoxyphenyl)thieno[3,2-d]pyrimidine-2,4(1H,3H)-dione]
1 to 10 | 1 to 10 | CCOc1cc2c(cc1OC)C(c1ccc(C(=O)N3CCC(n4c(=O)c5sc(-c6ccc(F)cc6OC)cc5n(Cc5ccc(C)c(F)c5)c4=O)CC3)cc1)=N[C@@H]1CCSC[C@H]21 [Example 16, 3-[1-({4-[(4aR,10bR)-9-ethoxy-8-methoxy-3,4,4a,10b-tetrahydro-1H-thiopyrano[4,3-c]isoquinolin-6-yl]phenyl}carbonyl)piperidin-4-yl]-6-(4-fluoro-2-methoxyphenyl)-1-(3-fluoro-4-methylbenzyl)thieno[3,2-d]pyrimidine-2,4(1H,3H)-dione]

The next lines start with the molecule.

Structure (SMILES) | IC50 [1] [nM] | IC50 [2] [nM]
CCOc1cc2c(cc1OC)C(c1ccc(C(=O)N3CCC(n4c(=O)c5sc(-c6ccccc6)cc5n(Cc5cc(F)c(OC)c(F)c5)c4=O)CC3)cc1)=N[C@@H]1CCSC[C@H]21 [Example 3, 1-(3,5-difluoro-4-methoxybenzyl)-3-[1-({4-[(4aR,10bR)-9-ethoxy-8-methoxy-3,4,4a,10b-tetrahydro-1H-thiopyrano[4,3-c]isoquinolin-6-yl]phenyl}carbonyl)piperidin-4-yl]-6-phenylthieno[3,2-d]pyrimidine-2,4(1H,3H)-dione] | 1 to 10 | 1 to 10
CCOc1cc2c(cc1OC)C(c1ccc(C(=O)N3CCC(n4c(=O)c5sc(-c6ccc(F)cc6OC)cc5n(Cc5ccc(OC)c(F)c5)c4=O)CC3)cc1)=N[C@@H]1CCSC[C@H]21 [Example 9, 3-[1-({4-[(4aR,10bR)-9-ethoxy-8-methoxy-3,4,4a,10b-tetrahydro-1H-thiopyrano[4,3-c]isoquinolin-6-yl]phenyl}carbonyl)piperidin-4-yl]-1-(3-fluoro-4-methoxybenzyl)-6-(4-fluoro-2-methoxyphenyl)thieno[3,2-d]pyrimidine-2,4(1H,3H)-dione] | 1 to 10 | 1 to 10
CCOc1cc2c(cc1OC)C(c1ccc(C(=O)N3CCC(n4c(=O)c5sc(-c6ccccc6)cc5n(Cc5ccccc5)c4=O)CC3)cc1)=N[C@@H]1CCSC[C@H]21 [Example 7, 1-benzyl-3-[1-({4-[(4aR,10bR)-9-ethoxy-8-methoxy-3,4,4a,10b-tetrahydro-1H-thiopyrano[4,3-c]isoquinolin-6-yl]phenyl}carbonyl)piperidin-4-yl]-6-phenylthieno[3,2-d]pyrimidine-2,4(1H,3H)-dione] | 1 to 10 | 1 to 10
CCOc1cc2c(cc1OC)C(c1ccc(C(=O)N3CCC(n4c(=O)c5sc(-c6ccccc6)cc5n(Cc5ccc(C)c(F)c5)c4=O)CC3)cc1)=N[C@@H]1CCSC[C@H]21 [Example 6, 3-[1-({4-[(4aR,10bR)-9-ethoxy-8-methoxy-3,4,4a,10b-tetrahydro-1H-thiopyrano[4,3-c]isoquinolin-6-yl]phenyl}carbonyl)piperidin-4-yl]-1-(3-fluoro-4-methylbenzyl)-6-phenylthieno[3,2-d]pyrimidine-2,4(1H,3H)-dione] | 1 to 10 | > 10
CCOc1cc2c(cc1OC)C(c1ccc(C(=O)N3CCC(n4c(=O)c5sc(-c6ccccc6)cc5n(Cc5cc(OC)c(OC)cc5F)c4=O)CC3)cc1)=N[C@@H]1CCSC[C@H]21 [Example 5, 3-[1-({4-[(4aR,10bR)-9-ethoxy-8-methoxy-3,4,4a,10b-tetrahydro-1H-thiopyrano[4,3-c]isoquinolin-6-yl]phenyl}carbonyl)piperidin-4-yl]-1-(2-fluoro-4,5-dimethoxybenzyl)-6-phenylthieno[3,2-d]pyrimidine-2,4(1H,3H)-dione] | 1 to 10 | 1 to 10
